EC50 data for 24 compounds are collected here from patent US20110190269A1, “GAMMA SECRETASE MODULATORS” (priority 2010, published 2011).

For this assay, the system named is γ-secretase. The assay can be described thus: Cellular γ-secretase assay (inhibition of Aβ42 secretion). It is filed as cell-based. As to conditions: human neuroglioma H4 cells overexpressing human APP, 22 hrs incubation. As to the method: Human neuroglioma H4 cells overexpressing human APP were plated at 30,000 cells/well/[…] in 96-well plates in IMDM media containing 10% FCS, […] Hygromycin B and incubated for 2 h at 37° C., 5% CO2 prior to adding test compounds.
Compounds for testing were dissolved in 100% Me2SO yielding in a 10 mM stock solution. Typically […] of these solutions were further diluted in 1000 μl of IMDM media (w/o FCS). Subsequent 1:1 dilutions gave a ten point dose response curve. 100 μl of each dilution was added to the cells in 96-well plates. Appropriate controls using vehicle only and reference compound were applied to this assay. The final concentration of Me2S0 was 0.4%.
After incubation for 22 hrs at 37° C., 5% CO2, 50 μl supernatant was transferred into round-bottom 96-well polypropylene plates for detection of Aβ42. 50 μl assay buffer (50 mM Tris/Cl, pH 7.4, 60 mM NaCl, 0.5% BSA, 1% TWEEN 20) was added to the wells followed by the addition of 100 μl of detection antibody (ruthenylated BAP15 0.0625 μg/ml in assay buffer). 50 μl of a premix of capture antibody (biotinylated 6E10 antibody, 1 μg/ml) and Steptavidin-coated magnetic beads (Dynal M-280, 0.125 mg/ml) were preincubated for 1 hr at room temperature before adding the assay plates. Assay plates were incubated on a shaker for 3 hrs at room temperature and finally read in the Bioveris M8 Analyser according to the manufacturer's instructions (Bioveris).
IC50 values for inhibition of Aβ42 secretion were calculated by nonlinear regression fit analysis using XLfit 4.0 software (IDBS).
What is called EC50 is the concentration giving half of the maximal effect. Read a high EC50 as a less potent agent. The compound `COc1cc(Nc2nc3nc(C(F)(F)F)cc(-c4ccco4)n3n2)ccc1-n1cnc(C)c1` [Example 24, (7-Furan-2-yl-5-trifluoromethyl-[1,2,4]triazolo[1,5-a]pyrimidin-2-yl)-[3-methoxy-4-(4-methyl-imidazol-1-yl)-phenyl]-amine] had a concentration giving a half-maximal response (EC50) of 0.592 µM.
For `COc1cc(Nc2nc3nc(C(C)C)cc(C(C)C)n3n2)ccc1-n1cnc(C)c1` [Example 25, (5,7-Diisopropyl-[1,2,4]triazolo[1,5-a]pyrimidin-2-yl)-[3-methoxy-4-(4-methyl-imidazol-1-yl)-phenyl]-amine acetate] the value was 0.601 µM.
Consider `COc1cc(Nc2nc3nc(C(F)(F)F)cc(C(F)(F)F)n3n2)ccc1-n1cnc(C)c1` [Example 26, (5,7-Bis-trifluoromethyl-[1,2,4]triazolo[1,5-a]pyrimidin-2-yl)-[3-methoxy-4-(4-methyl-imidazol-1-yl)-phenyl]-amine], for which the EC50 is 0.312 µM.
Compound `COCc1cnc(-c2ccccc2)n2nc(Nc3ccc(-n4cnc(C)c4)c(OC)c3)nc12` [Example 27, [3-Methoxy-4-(4-methyl-imidazol-1-yl)-phenyl]-(8-methoxymethyl-5-phenyl-[1,2,4]triazolo[1,5-c]pyrimidin-2-yl)-amine] registered an EC50 of 0.742 µM.
On to `COCc1cnc(C2CCCCC2)n2nc(Nc3ccc(-n4cnc(C)c4)c(OC)c3)nc12` [Example 28, (5-Cyclohexyl-8-methoxymethyl-[1,2,4]triazolo[1,5-c]pyrimidin-2-yl)-[3-methoxy-4-(4-methyl-imidazol-1-yl)-phenyl]-amine], for which a half-maximal response (EC50) required 1.49 µM.
`COc1cc(Nc2nc3c(CN4CCOCC4)cnc(-c4ccccc4)n3n2)ccc1-n1cnc(C)c1` [Example 29, [3-Methoxy-4-(4-methyl-imidazol-1-yl)-phenyl]-(8-morpholin-4-ylmethyl-5-phenyl-[1,2,4]triazolo[1,5-c]pyrimidin-2-yl)-amine] displayed an EC50 of 1.27 µM.
With `COc1cc(Nc2nc3cccc(N4CCOCC4)n3n2)ccc1-n1cnc(C)c1` [Example 30, [3-Methoxy-4-(4-methyl-imidazol-1-yl)-phenyl]-(5-morpholin-4-yl-[1,2,4]triazolo[1,5-a]pyridin-2-yl)-amine], the EC50 was 0.247 µM.
As for `COc1cc(Nc2nc3cccc(N4CCCCCC4)n3n2)ccc1-n1cnc(C)c1` [Example 31, (5-Azepan-1-yl-[1,2,4]triazolo[1,5-a]pyridin-2-yl)-[3-methoxy-4-(4-methyl-imidazol-1-yl)-phenyl]-amine], the response was half-maximal at 0.587 µM (EC50).
Consider `CCCc1ncc(CN2CCOCC2)c2nc(Nc3ccc(-n4cnc(C)c4)c(OC)c3)nn12` [Example 32, [3-Methoxy-4-(4-methyl-imidazol-1-yl)-phenyl]-(8-morpholin-4-ylmethyl-5-propyl-[1,2,4]triazolo[1,5-c]pyrimidin-2-yl)-amine], for which the EC50 is 0.864 µM.
For the compound `COc1cc(Nc2nc3cccc(N4CCCCC4)n3n2)ccc1-n1cnc(C)c1` [Example 33, [3-Methoxy-4-(4-methyl-imidazol-1-yl)-phenyl]-(5-piperidin-1-yl-[1,2,4]triazolo[1,5-a]pyridin-2-yl)-amine], the response was half-maximal at 0.556 µM (EC50).
`CCN(CC)c1cccc2nc(Nc3ccc(-n4cnc(C)c4)c(OC)c3)nn12` [Example 34, N5,N5-Diethyl-N2-[3-methoxy-4-(4-methyl-imidazol-1-yl)-phenyl]-[1,2,4]triazolo[1,5-a]pyridine-2,5-diamine] showed an EC50 of 0.64 µM.
The compound `COc1cc(Nc2nc3nccc(-c4ccc(C#N)cc4)n3n2)ccc1-n1cnc(C)c1` [Example 35, 4-{2-[3-Methoxy-4-(4-methyl-imidazol-1-yl)-phenylamino]-[1,2,4]triazolo[1,5-a]pyrimidin-7-yl}-benzonitrile] displayed an EC50 of 5.93 µM.
In turn, `COc1cc(Nc2nc3nccc(-c4ccc(C(F)(F)F)cc4)n3n2)ccc1-n1cnc(C)c1` [Example 36, [3-Methoxy-4-(4-methyl-imidazol-1-yl)-phenyl]-[7-(4-trifluoromethyl-phenyl)-[1,2,4]triazolo[1,5-a]pyrimidin-2-yl]-amine] displayed a concentration for a half-maximal effect (EC50) of 0.573 µM.
`COc1cc(Nc2nc3ncc(C#N)c(-c4ccccc4)n3n2)ccc1-n1cnc(C)c1` [Example 37, 2-[3-Methoxy-4-(4-methyl-imidazol-1-yl)-phenylamino]-7-phenyl-[1,2,4]triazolo[1,5-a]pyrimidine-6-carbonitrile] returned an EC50 of 0.26 µM.
For `COc1cc(Nc2nc3ncc(C#N)c(-c4ccccc4Cl)n3n2)ccc1-n1cnc(C)c1` [Example 38, 7-(2-Chloro-phenyl)-2-[3-methoxy-4-(4-methyl-imidazol-1-yl)-phenylamino]-[1,2,4]triazolo[1,5-a]pyrimidine-6-carbonitrile] the value was 0.578 µM; for `COc1cc(Nc2nc3ncc(C#N)c(-c4ccc(Cl)cc4)n3n2)ccc1-n1cnc(C)c1` [Example 39, 7-(4-Chloro-phenyl)-2-[3-methoxy-4-(4-methyl-imidazol-1-yl)-phenylamino]-[1,2,4]triazolo[1,5-a]pyrimidine-6-carbonitrile], 0.145 µM.
Next, `COc1cc(Nc2nc3ncc(C#N)c(-c4cccc(C)c4)n3n2)ccc1-n1cnc(C)c1` [Example 40, 2-[3-Methoxy-4-(4-methyl-imidazol-1-yl)-phenylamino]-7-m-tolyl-[1,2,4]triazolo[1,5-a]pyrimidine-6-carbonitrile]: 0.417 µM; `COc1cc(Nc2nc3nc(C(F)(F)F)cc(-c4cnccn4)n3n2)ccc1-n1cnc(C)c1` [Example 41, [3-Methoxy-4-(4-methyl-imidazol-1-yl)-phenyl]-(7-pyrazin-2-yl-5-trifluoromethyl-[1,2,4]triazolo[1,5-a]pyrimidin-2-yl)-amine]: 4.31 µM; `COc1ccc2nc(Nc3ccc(-n4cnc(C)c4)c(OC)c3)nn2n1` [Example 42, [3-Methoxy-4-(4-methyl-imidazol-1-yl)-phenyl]-(6-methoxy-[1,2,4]triazolo[1,5-b]pyridazin-2-yl)-amine]: 1.32 µM.
As to `COc1cc(Nc2nc3c(OCc4ccccc4)cccn3n2)ccc1-n1cnc(C)c1` [Example 43, (8-Benzyloxy-[1,2,4]triazolo[1,5-a]pyridin-2-yl)-[3-methoxy-4-(4-methyl-imidazol-1-yl)-phenyl]-amine], the response was half-maximal at 0.68 µM (EC50).
For `COc1cc(Nc2nc3c(Cl)cc(Cl)cn3n2)ccc1-n1cnc(C)c1` [Example 44, (6,8-Dichloro-[1,2,4]triazolo[1,5-a]pyridin-2-yl)-[3-methoxy-4-(4-methyl-imidazol-1-yl)-phenyl]-amine] the value was 1.56 µM; for `COc1cc(Nc2nc3ccnc(-c4ccc(F)cc4)n3n2)ccc1-n1cnc(C)c1` [Example 45, [5-(4-Fluoro-phenyl)-[1,2,4]triazolo[1,5-c]pyrimidin-2-yl]-[3-methoxy-4-(4-methyl-imidazol-1-yl)-phenyl]-amine], 1.4 µM; for `COc1cc(Nc2nc3c(-c4ccc(F)cc4)cc(C)cn3n2)ccc1-n1cnc(C)c1` [Example 46, [8-(4-Fluoro-phenyl)-6-methyl-[1,2,4]triazolo[1,5-a]pyridin-2-yl]-[3-methoxy-4-(4-methyl-imidazol-1-yl)-phenyl]-amine], 0.18 µM.
For `COc1cc(Nc2nc3cc(C(F)(F)F)ccn3n2)ccc1-n1cnc(C)c1` [Example 47, [3-Methoxy-4-(4-methyl-imidazol-1-yl)-phenyl]-(7-trifluoromethyl-[1,2,4]triazolo[1,5-a]pyridin-2-yl)-amine] the value was 1.34 µM.
